# From patent US7868204B2, “Inhibitors of histone deacetylase” (MethylGene Inc., priority 2001, dated 2011)
# Read-outs that look alike come from different tables or passages of the source.
# How the values were obtained:
# [1] = biological target: T1, cloned recombinant human HDAC-1 (Homo sapiens, UniProt Q13547); experiment: Human HDAC-1 enzyme inhibition, Assay 1 ([3H]-acetylated histone substrate, scintillation counting); assay type: biochemical
# T1 construct: made in house; host or cells: Baculovirus insect cell expression system
# T1 sequence (Q13547 whole entry): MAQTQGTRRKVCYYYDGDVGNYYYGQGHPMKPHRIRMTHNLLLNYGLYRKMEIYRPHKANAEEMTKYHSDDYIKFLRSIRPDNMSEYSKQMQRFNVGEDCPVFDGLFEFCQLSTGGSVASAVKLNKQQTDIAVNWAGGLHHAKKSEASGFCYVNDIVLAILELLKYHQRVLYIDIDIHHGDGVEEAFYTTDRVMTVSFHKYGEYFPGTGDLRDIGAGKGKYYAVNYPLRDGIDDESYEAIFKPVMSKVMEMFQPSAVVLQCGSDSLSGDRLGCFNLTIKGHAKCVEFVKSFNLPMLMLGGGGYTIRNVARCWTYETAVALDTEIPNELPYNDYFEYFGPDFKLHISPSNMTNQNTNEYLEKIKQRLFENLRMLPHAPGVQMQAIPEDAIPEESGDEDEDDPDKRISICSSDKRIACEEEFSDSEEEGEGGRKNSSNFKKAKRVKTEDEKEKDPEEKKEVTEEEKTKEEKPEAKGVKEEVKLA
# Method: Assay 1. HDAC inhibitors were screened against a cloned recombinant human HDAC-1 enzyme expressed and purified from a Baculovirus insect cell expression system. […] The mixture was extracted with ethyl acetate and the released [^3H]-acetic acid was quantified by scintillation counting. For inhibition studies, the enzyme was preincubated with compounds at 4° C. for 30 minutes prior to initiation of the enzymatic assay. IC50 values for HDAC enzyme inhibitors were determined by performing dose response curves with individual compounds and determining the concentration of inhibitor producing fifty percent of the maximal inhibition.
# HCT116 cells = experiment: MTT assay; assay type: cell-based; settings: Homo sapiens, HCT116 cells, 72 hours
# Method: HCT116 cells (2000/well) were plated into 96-well tissue culture plates one day before compound treatment. Compounds at various concentrations were added to the cells. The cells were incubated for 72 hours at 37° C. in 5% CO2 incubator. MTT (3-[4,5-dimethylthiazol-2-yl]-2,5 diphenyl tetrazolium bromide, Sigma) was added at a final concentration of 0.5 mg/ml and incubated with the cells for 4 hours before one volume of solubilization buffer (50% N,N-dimethylformamide, 20% SDS, pH 4.7) was added onto the cultured cells. […] OD values were converted to cell numbers according to a standard growth curve of the relevant cell line.
# [2] = Table 5b, read-out: Human HDAC-1 IC50
# [3] = Table 5d, read-out: HDAC-1 IC50
# [4] = Table 5c, read-out: Human HDAC-1 IC50
# [5] = Table 5F, read-out: Human HDAC-1 IC50
"IC50 [1, 3] [µM]","IC50 (HCT116 cells; HCT-116, Table 5d) [µM]","IC50 [1, 5] [µM]",Structure (SMILES),other results
–,–,–,Cc1nc(NCc2ccc(C(=O)Nc3ccccc3N)cc2)nc(NC2Cc3ccccc3C2)n1 [Cpd 218],"IC50 [1, 2]: 0.1 µM; IC50 (HCT116 cells; HCT-116, 72 h, Table 5b): 0.5 µM"
13,3,–,COc1cc(NCc2ccc(/C=C/C(=O)Nc3ccccc3N)cc2[N+](=O)[O-])cc(OC)c1OC [Cpd 567],–
–,–,–,"COc1cc(CNCc2ccc(/C=C/C(=O)Nc3ccccc3N)cc2)cc(OC)c1OC [Cpd 59, N-(2-aminophenyl)-3-{4-[(3,4,5-trimethoxy-benzylamino)-methyl]-phenyl}-acrylamide]","IC50 [1, 4]: 12 µM; IC50 (HCT116 cells; HCT-116, 72 h, Table 5c): 22 µM"
–,–,20,"COc1cc(N2C(=O)OCC2c2ccc(C(=O)Nc3ccccc3N)cc2)cc(OC)c1OC (centres unmarked) [compound 296, N-(2-Amino-phenyl)-4-[2-oxo-3-(3,4,5-trimethoxy-phenyl)-oxazolidin-4-yl]-benzamide]","IC50 (HCT116 cells; HCT-116, 72 h, Table 5F): 7 µM"
15,6,–,"COc1cc(OCc2ccc(/C=C/C(=O)Nc3ccccc3N)cc2)cc(OC)c1OC [Cpd 497, N-(2-Amino-phenyl)-3-[4-(3,4,5-trimethoxy-phenoxymethyl)-phenyl]-acrylamide]",–
2,10,–,"Nc1ccccc1NC(=O)/C=C/c1ccc(CNc2cccc(S(=O)(=O)NCCCN3CCOCC3)c2)cc1 [Cpd 539, N-(2-Amino-phenyl)-3-(4-{[3-(3-morpholin-4-yl-propylsulfamoyl)-phenylamino]-methyl}-phenyl)-acrylamide]",–
–,–,3,"CNc1nc2cc(NCc3ccc(C(=O)Nc4ccccc4N)cc3)ccc2s1 [Cpd 456, N-(2-Amino-phenyl)-4-[(2-methylamino-benzothiazol-5-ylamino)-methyl]-benzamide]","IC50 (HCT116 cells; HCT-116, 72 h, Table 5F): 0.4 µM"
14,7,–,"CSc1cccc(NCc2ccc(/C=C/C(=O)Nc3ccccc3N)cc2)c1 [Cpd 555, N-(2-Amino-phenyl)-3-{4-[(3-methylsulfanyl-phenylamino)-methyl]-phenyl}-acrylamide]",–
–,–,14,"Nc1ccccc1NC(=O)c1ccc(CNc2nccc3ccccc23)cc1 [Cpd 399, N-(2-Amino-phenyl)-4-(isoquinolin-1-ylaminomethyl)-benzamide]","IC50 (HCT116 cells; HCT-116, 72 h, Table 5F): 9 µM"
5,3,–,"Nc1ccccc1NC(=O)/C=C/c1ccc(C(=O)Nc2ccccc2N)cc1 [Cpd 520, N-(2-Amino-phenyl)-4-[2-(2-amino-phenylcarbamoyl)-vinyl]-benzamide]",–
–,–,–,"COc1ccc(CNc2ccc3cc(/C=C/C(=O)Nc4ccccc4N)ccc3n2)cc1 [Cpd 88, N-(2-aminophenyl)-3-[2-(4-methoxy-benzylamino)-quinolin-6-yl]-acrylamide]","IC50 (HCT116 cells; HCT-116, 72 h, Table 5c): > 39 µM"
–,–,–,"NCc1cccc(CNc2ccc(/C=C/C(=O)Nc3ccccc3N)cn2)c1 [Cpd 102, 3-[6-(3-aminomethyl-benzylamino)-pyridin-3-yl]-N-(2-aminophenyl)-acrylamide]","IC50 [1, 4]: 20 µM; IC50 (HCT116 cells; HCT-116, 72 h, Table 5c): 6 µM"
4,12,–,"Nc1ccccc1NC(=O)/C=C/c1ccc(CNc2cccc(S(N)(=O)=O)c2)cc1 [Cpd 538, N-(2-Amino-phenyl)-3-{4-[(3-sulfamoyl-phenylamino)-methyl]-phenyl}-acrylamide]",–
–,–,3,"Cc1ccc(NCc2ccc(C(=O)Nc3ccccc3N)cc2)c(C)c1 [Cpd 409, N-(2-Amino-phenyl)-4-[(2,4-dimethyl-phenylamino)-methyl]-benzamide]","IC50 (HCT116 cells; HCT-116, 72 h, Table 5F): 1 µM"
5,11,–,"CC(=O)NCc1cccc(NCc2ccc(/C=C/C(=O)Nc3ccccc3N)cc2)c1 [Cpd 533, 3-(4-{[3-(Acetylamino-methyl)-phenylamino]-methyl}-phenyl)-N-(2-amino-phenyl)-acrylamide]",–
–,–,5,CCCc1nc(Cc2ccc(C(=O)Nc3ccccc3N)cc2)no1 [Cpd 356],"IC50 (HCT116 cells; HCT-116, 72 h, Table 5F): 2 µM"
–,–,3,"Cc1cc(C)cc(NCc2ccc(C(=O)Nc3ccccc3N)cc2)c1 [Cpd 407, N-(2-Amino-phenyl)-4-[(3,5-dimethyl-phenylamino)-methyl]-benzamide]","IC50 (HCT116 cells; HCT-116, 72 h, Table 5F): 2 µM"
–,–,–,"Nc1ccccc1NC(=O)/C=C/c1ccc(CSc2ccc3ccccc3n2)cc1 [Cpd 110, N-(2-Amino-phenyl)-3-[4-(quinolin-2-ylsulfanylmethyl)-phenyl]-acrylamide]","IC50 [1, 4]: 3 µM"
> 25,> 25,–,COc1cc(NCc2ccc(/C=C/C(=O)Nc3cccc(N)c3N)cc2)cc(OC)c1OC [Cpd 564],–
8,9,–,"Nc1ccccc1NC(=O)/C=C/c1ccc(CNc2cccc(CO)c2)cc1 [Cpd 530, N-(2-Amino-phenyl)-3-{4-[(3-hydroxymethyl-phenylamino)-methyl]-phenyl}-acrylamide]",–
–,–,3,"Cc1nc(Cc2ccc(C(=O)Nc3ccccc3N)cc2)no1 [compound 284, N-(2-Amino-phenyl)-4-(5-methyl-[1,2,4]oxadiazol-3-ylmethyl)-benzamide]","IC50 (HCT116 cells; HCT-116, 72 h, Table 5F): 5 µM"

"IC50 [1, 3] [µM]","IC50 (HCT116 cells; HCT-116, Table 5d) [µM]","IC50 [1, 5] [µM]",Structure (SMILES),other results
4,8,–,"Nc1ccccc1NC(=O)/C=C/c1ccc(CNc2ccc(I)cc2)cc1 [Cpd 547, N-(2-Amino-phenyl)-3-{4-[(4-iodo-phenylamino)-methyl]-phenyl}-acrylamide]",–
–,–,–,"Nc1ccccc1NC(=O)c1ccc(CNc2nc(N3CCCCC3)nc(N3CCCCC3)n2)cc1 [Cpd 26, N-(2-Amino-phenyl)-4-[(4,6-di-piperidin-1-yl-[1,3,5]triazin-2-ylamino)-methyl]-benzamide]","IC50 ([1]; Table 5a, read-out: Human HDAC-1 IC50): 0.5 µM; IC50 (HCT116 cells; HCT-116, 72 h, Table 5a): 2 µM"
20,32,–,Nc1ccccc1NC(=O)/C=C/c1ccc(CNc2cccc(O)c2)cc1 [Cpd 528],–
–,10,–,"COc1cccc(NCc2ccc(/C=C/C(=O)Nc3ccccc3N)cc2)c1 [Cpd 507, N-(2-Amino-phenyl)-3-{4-[(3-methoxy-phenylamino)-methyl]-phenyl}-acrylamide]",–
–,–,3,Nc1ccccc1NC(=O)c1ccc(N2CCOCC2)cc1 [Cpd 238],"IC50 (HCT116 cells; HCT-116, 72 h, Table 5F): 6 µM"
6,5,–,"CC(C)c1ccc(NCc2ccc(/C=C/C(=O)Nc3ccccc3N)cc2)cc1 [Cpd 510, N-(2-Amino-phenyl)-3-{4-[(4-isopropyl-phenylamino)-methyl]-phenyl}-acrylamide]",–
4,6,–,"Nc1ccccc1NC(=O)/C=C/c1ccc(CNc2ccc(Br)cn2)cc1 [Cpd 557, N-(2-Amino-phenyl)-3-{4-[(5-bromo-pyridin-2-ylamino)-methyl]-phenyl}acrylamide]",–
–,–,14,"Nc1ccccc1NC(=O)c1ccc(Oc2ccccc2)cc1 [Cpd 366, N-(2-Amino-phenyl)-4-phenoxy-benzamide]","IC50 (HCT116 cells; HCT-116, 72 h, Table 5F): 10 µM"
–,–,5,Nc1ccccc1NC(=O)c1ccc(CSc2nc3cc(OCCN4CCOCC4)ccc3[nH]2)cc1 [Cpd 236],"IC50 (HCT116 cells; HCT-116, 72 h, Table 5F): 6 µM"
–,–,4,C=C(C)C#Cc1ccc(C(=O)Nc2ccccc2N)cc1 [Cpd 193],"IC50 (HCT116 cells; HCT-116, 72 h, Table 5F): 16 µM"
–,–,3,COc1cc(-c2ccc3sc(NCc4ccc(C(=O)Nc5ccccc5N)cc4)nc3c2)cc(OC)c1OC [Cpd 194],–
> 25,–,–,"COc1cc2c(cc1OC)CN(c1ccc(/C=C/C(=O)Nc3ccccc3N)cc1)CC2 [Cpd 498, N-(2-Amino-phenyl)-3-[4-(6,7-dimethoxy-3,4-dihydro-1H-isoquinolin-2-yl)-phenyl]-acrylamide]",–
–,11,–,"COc1ccccc1NCc1ccc(/C=C/C(=O)Nc2ccccc2N)cc1 [Cpd 508, N-(2-Amino-phenyl)-3-{4-[(2-methoxy-phenylamino)-methyl]-phenyl}-acrylamide]",–
–,–,–,"COc1ccc(CNc2ccc(/C=C/C(=O)Nc3ccccc3N)cc2)cc1 [Cpd 65, N-(2-aminophenyl)-3-{4-(4-methoxy-benzylamino)-phenyl}-acrylamide]","IC50 (HCT116 cells; HCT-116, 72 h, Table 5c): 37 µM"
–,–,2,Nc1ccccc1NC(=O)c1ccc(-c2ccc(CNC3Cc4ccccc4C3)s2)cc1 [Cpd 465],–
–,12,–,"COc1ccc(NCc2ccc(/C=C/C(=O)Nc3ccccc3N)cc2)cc1 [Cpd 541, N-(2-Amino-phenyl)-3-{4-[(4-methoxy-phenylamino)-methyl]-phenyl}-acrylamide]",–
–,–,–,"Cc1nc(NCCc2ccccc2)nc(NCc2ccc(C(=O)Nc3ccccc3N)cc2)n1 [Cpd 483, N-(2-amino-phenyl)-4-[(6-methyl-4-phenethylamino-[1,3,5]triazin-2-yl-amino)-methyl]-benzamide]","IC50 [1, 2]: 4 µM"
–,11,–,"Nc1ccccc1NC(=O)/C=C/c1ccc(CNc2ccccc2)cc1 [Cpd 509, N-(2-Amino-phenyl)-3-(4-phenylaminomethyl-phenyl)-acrylamide]",–
–,6,–,Nc1ccccc1NC(=O)/C=C/c1ccc2c(c1)-c1ccccc1C2 [Cpd 519],–
–,–,–,"COc1ccc(NCc2ccc(C(=O)Nc3cc(C(F)(F)F)ccc3N)cc2)cc1OC [Cpd 453, N-(2-Amino-5-trifluoromethyl-phenyl)-4-[(3,4-dimethoxy-phenylamino)-methyl]-benzamide]","IC50 (HCT116 cells; HCT-116, 72 h, Table 5F): 37 µM"

Structure (SMILES),"IC50 [1, 3] [µM]","IC50 (HCT116 cells; HCT-116, Table 5d) [µM]","IC50 [1, 5] [µM]",other results
C[Si](C)(C)C#Cc1ccc(C(=N)Nc2ccccc2N)cc1 [Cpd 198],–,–,24,"IC50 (HCT116 cells; HCT-116, Table 5F): 14 µM"
